Measurements reported in ChEMBL document CHEMBL1141051, “Antiviral 6-amino-quinolones: molecular basis for potency and selectivity” (Bioorg Med Chem Lett, 2005).
pEC50: −log10 of the molar value.

Columns and labels:
Nucleic Acid [1] = experiment: Effective concentration required for binding to tRNA using electrophoretic mobility shift assays done at 25 degree C with pH 7.5; assay type: nucleic-acid assay, Human immunodeficiency virus 1
Nucleic Acid [2] = experiment: Effective concentration required for binding to mutant loopless TAR using electrophoretic mobility shift assays done at 25 degree C with pH 7.5; assay type: nucleic-acid assay, Human immunodeficiency virus 1
[3] = target: T1, Protein Tat (Human immunodeficiency virus type 1 group M subtype B (isolate HXB2)(HIV-1)) (UniProt P04608); experiment: Binding constant (K) against Tat/TAR using 1:1 quinolone/Mg2+ complex done at 25 degree C with pH 7.5; details: Human immunodeficiency virus 1
T1 sequence (whole entry): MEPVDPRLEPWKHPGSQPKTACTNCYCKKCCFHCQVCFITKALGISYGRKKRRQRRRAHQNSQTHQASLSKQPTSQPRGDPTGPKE

Nucleic Acid [4] = experiment: Effective concentration required for binding to wild-type TAR using electrophoretic mobility shift assays done at 25 degree C with pH 7.5; assay type: nucleic-acid assay, Human immunodeficiency virus 1
Nucleic Acid [5] = experiment: Effective concentration required for binding to mutant double stranded TAR using electrophoretic mobility shift assays done at 25 degree C with pH 7.5; assay type: nucleic-acid assay, Human immunodeficiency virus 1

Compound	pEC50 (Nucleic Acid [1])	pEC50 (Nucleic Acid [2])	K [3] [M⁻¹]	pEC50 (Nucleic Acid [4])	pEC50 (Nucleic Acid [5])
Cn1cc(C(=O)O)c(=O)c2cc(N)c(N3CCN(c4ccccn4)CC3)cc21	< 4.30	6.49	6650	6.68	–
Nc1cc2c(=O)c(C(=O)O)cn(C3CC3)c2cc1N1CCN(c2cccc(C(F)(F)F)c2)CC1	6.89	–	13600	6.72	7.30
O=C(O)c1cn(C2CC2)c2cc(N3CCNCC3)c(F)cc2c1=O	–	–	790	–	–
